Experimental data: ChEMBL document CHEMBL1153491, “Discovery of CYT997: a structurally novel orally active microtubule targeting agent” (Bioorg Med Chem Lett, 2009)
Calls of active or inactive are those of the source. The rule behind the calls is not given here.

How the values were obtained:
PC-3 [1] = assay: Cytotoxicity against human PC3 cells after 72 hrs by MTT assay; format: functional, cell-based; settings: PC-3, 72 h
DU-145 = assay: Cytotoxicity against human DU145 cells after 72 hrs by MTT assay; format: functional, cell-based; settings: DU-145, 72 h
[2] = Half life in rat at 5 mg/kg, iv; format: ADME, organism-based; design: dose 5 mg/kg, route intravenous; settings: in vivo
[3] = Clearance in rat at 5 mg/kg, iv; format: ADME, organism-based; design: dose 5 mg/kg, route intravenous; settings: in vivo
[4] = Apparent volume of distribution in rat at 5 mg/kg, iv; format: ADME, organism-based; design: dose 5 mg/kg, route intravenous; settings: in vivo, read-out: Vz
[5] = Oral bioavailability in rat at 25 mg/kg, po; format: ADME, organism-based; settings: in vivo
[6] = Cmax in rat at 25 mg/kg, po; format: ADME, organism-based; design: dose 25 mg/kg, route oral; settings: in vivo
[7] = Apparent volume of distribution in rat at 5 mg/kg, iv in presence of captisol; format: ADME, organism-based; design: dose 5 mg/kg, route intravenous; settings: in vivo, read-out: Vz
PC-3 [8] = assay: Cell cycle arrest in human PC3 cells assessed as accumulation in G2/M phase after 1 hr; format: functional, cell-based
[9] = Half life in rat at 5 mg/kg, iv in presence of captisol; format: ADME, organism-based; design: dose 5 mg/kg, route intravenous; settings: in vivo
PC-3 [10] = assay: Disruption of microtubule network in human PC3 cells after 1 hr; format: functional, cell-based
[11] = Clearance in rat at 5 mg/kg, iv in presence of captisol; format: ADME, organism-based; design: dose 5 mg/kg, route intravenous; settings: in vivo
Bos taurus = organism: Bos taurus; assay: Inhibition of bovine tubulin polymerization at 3 uM

Row | Structure (SMILES) | IC50 (PC-3 [1]) | IC50 (DU-145) | also measured
1 | CCC[C@H](Nc1ccnc(-c2ccc(NC(=O)NCC)c(OC)c2)n1)c1cccnc1 | 150 nM | 200 nM | –
2 | CC[C@H](Nc1cncc(-c2ccc(O)c(OC)c2)n1)c1ccccc1 | 10000 nM | 10000 nM | –
3 | CCCC(Nc1cncc(-c2ccc(O)c(OC)c2)n1)c1cccnc1 (stereo not drawn) | 300 nM | 600 nM | –
4 | CCCC(=O)Nc1ccc(-c2cncc(NC(CCC)c3cccnc3)n2)cc1OC (stereo not drawn) | 600 nM | – | –
5 | CCCC(Nc1cncc(-c2ccc(NC(C)=O)c(OC)c2)n1)c1cccnc1 (stereo not drawn) | 5000 nM | – | –
6 | CCCC(Nc1cncc(-c2ccc(O)c(OC)c2)n1)c1cccc(Cl)c1 (stereo not drawn) | 1000 nM | 600 nM | –
7 | CCCC(Nc1cncc(-c2ccc(O)c(OCC)c2)n1)c1cccnc1 (stereo not drawn) | 1000 nM | – | –
8 | CCC[C@H](Nc1cncc(-c2ccc(O)c(OC)c2)n1)c1ccccc1 | 160 nM | 200 nM | –
9 | CCCC(Nc1cncc(-c2ccc(O)c(OC)c2)n1)c1cccc(OC)c1 (stereo not drawn) | 10000 nM | 1000 nM | –
10 | CCCC(Nc1cncc(-c2ccc(O)c(OC)c2)n1)c1ccc(OC)cc1 (stereo not drawn) | 3000 nM | 3000 nM | –
11 | CCC[C@H](Nc1nc(-c2ccc(NC(=O)NCC)c(OC)c2)ncc1C)c1cccnc1 [LEXIBULIN] | 60 nM | 60 nM | half-life [2]: 1.6 h; clearance [3]: 36.8 mL/min/kg; Vd [4]: 5.2 L/kg; bioavailability [5]: 78%; Cmax [6]: 9.4 µM
12 | CCCC(Nc1cncc(-c2ccc(O)c(OC)c2)n1)c1cccc(F)c1 (stereo not drawn) | 600 nM | 300 nM | –
13 | CCC[C@H](Nc1cc(-c2ccc(NC(=O)NCC)c(OC)c2)ncn1)c1cccnc1 | 100 nM | 100 nM | –
14 | CCCC(Nc1cncc(-c2ccc(O)c(OC(C)C)c2)n1)c1cccnc1 (stereo not drawn) | 10000 nM | 10000 nM | –
15 | CCCC(Nc1cncc(-c2ccc(NC(=O)NCCN(C)C)c(OC)c2)n1)c1cccnc1 (stereo not drawn) | 1000 nM | 1000 nM | –
16 | CCCC(Nc1cncc(-c2ccc(O)c(OC)c2)n1)c1ccc(Cl)cc1 (stereo not drawn) | 20000 nM | 10000 nM | –
17 | CCCC(Nc1cncc(-c2ccc(O)c(OC)c2)n1)c1ccccc1 (stereo not drawn) | 160 nM | 500 nM | –
18 | CCCC(Nc1cncc(-c2ccc(NC(=O)NCC)c(OC)c2)n1)c1cccnc1 (stereo not drawn) | 40 nM | 60 nM | –
19 | CCC[C@H](Nc1cc(C)nc(-c2ccc(NC(=O)NCC)c(OC)c2)n1)c1cccnc1 | 200 nM | 200 nM | –
20 | COc1cc(-c2cncc(N[C@@H](C)c3ccccc3)n2)ccc1O | 10000 nM | 3000 nM | –
21 | CCC[C@H](Nc1cncc(-c2ccc(NC(=O)NCC)c(OC)c2)n1)c1cccnc1 | – | – | Vd [7]: 7.1 L/kg; Activity (PC-3 [8]): Active; half-life [9]: 0.6 h; Activity (PC-3 [10]): Active; clearance [11]: 127 mL/min/kg; inhibition (Bos taurus): Active
22 | CCCC(Nc1cncc(-c2ccc(O)c(OC)c2)n1)c1ccc(F)cc1 (stereo not drawn) | – | 4000 nM | –
23 | CCC[C@H](Nc1cc(-c2ccc(NC(=O)NCC)c(OC)c2)nc(C)n1)c1cccnc1 | 80 nM | 100 nM | –
24 | CCCC(Nc1cncc(-c2ccc(NC(=O)NCC)c(CC)c2)n1)c1cccnc1 (stereo not drawn) | 160 nM | 100 nM | –
